Data: US20220144854A1, “MACROCYCLIC COMPOUNDS” (ZENO MANAGEMENT, INC., priority 2019, published 2022)

Assays:
[1] = biological target: Mcl-1 (Homo sapiens, UniProt Q07820); test: Mcl-1 Homogeneous Time Resolved Fluorescence (HTRF) binding assay; details: HTRF; 4 nM Mcl-1, 100 nM FAM-Bak peptide; 10-dose, singlicate; read-out: Mcl-1 IC50
[2] = test system: NCI-H929 (ATCC CRL-9068) cells; test: NCI-H929 cell proliferation assay (CellTiter-Glo); type: cell-based; details: 72 h of compound treatment
Description: Cell proliferation was measured using the CellTiter-Glo® Luminescent Cell Viability Assay. The assay involved the addition of a single reagent (CellTiter-Glo® Reagent) directly to cells cultured in serum-supplemented medium.
Each compound evaluated was prepared as a DMSO stock solution (10 mM). Compounds were tested in duplicate on each plate, with a 10-point serial dilution curve (1:3 dilution). Compound treatment ([…]) was added from the compound dilution plate to the cell plate. The highest compound concentration was 10 μM (final), with a 0.1% final DMSO concentration. Plates were then incubated at 37° C., 5% CO2. After 72 h of compound treatment, cell plates were equilibrated at rt for approximately 30 mins. An equi-volume amount of CellTiter-Glo® Reagent (40 μL) was added to each well. Plates were mixed for 2 mins on an orbital shaker to induce cell lysis and then incubated at rt for 10 mins to stabilize the luminescent signal. Luminescence was recorded using an Envision plate reader according to CellTiter-Glo protocol. IC50 of each compound was calculated using GraphPad Prism by nonlinear regression analysis.

[3] = from COC(=O)c1c(CCCI)c2ccc(Cl)c(-c3c(CN(Cc4cc(CCc5cc(O)c6ccccc6c5)n(C)n4)C(=O)OC(C)(C)C)nn4c3CCC4)c2n1C; ether bond; 21-membered ring; K2CO3; MeCN; 3.61 mM; 60.0 °C

Sequence of Mcl-1 (Q07820 whole entry): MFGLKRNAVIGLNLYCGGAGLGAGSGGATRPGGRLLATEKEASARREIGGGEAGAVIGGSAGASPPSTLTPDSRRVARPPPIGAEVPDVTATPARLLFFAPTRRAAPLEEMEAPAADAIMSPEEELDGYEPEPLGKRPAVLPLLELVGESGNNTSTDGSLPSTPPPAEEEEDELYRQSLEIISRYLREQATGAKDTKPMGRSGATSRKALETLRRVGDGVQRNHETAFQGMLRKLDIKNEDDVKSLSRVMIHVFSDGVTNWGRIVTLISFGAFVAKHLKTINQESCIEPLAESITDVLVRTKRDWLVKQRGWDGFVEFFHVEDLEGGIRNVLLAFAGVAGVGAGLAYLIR

SMILES	IC50 [1] [nM]	IC50 ([2]; Homo sapiens, NCI-H929, 72 h) [nM]	IC50 [2] [nM]	ring closure, isolated yield [3] [%]
Cc1nn(C23CC(C2)C3)c2c1-c1c(Cl)ccc3c(c(C(=O)O)n(C)c13)CCCOc1cc(cc3ccccc13)SCc1cc(n[nH]1)CSC2 (single isomer, unassigned) [Example 21B, (Z)-2^1-(Bicyclo[1.1.1]pentan-1-yl)-1^6-chloro-1^1,2^3-dimethyl-1^1H,2^1H,6^1H-10-oxa-4,8-dithia-1(7,3)-indola-2(4,5),6(3,5)-dipyrazola-9(3,1)-naphthalenacyclotridecaphane-1^2-carboxylic acid]	< 10	< 100	–	–
Cc1nn(C)c2c1-c1c(F)ccc3c(c(C(=O)O)n(C)c13)CCCOc1cc(cc3ccccc13)SCc1cc(nn1CC1CC1)CSC2 (single isomer, unassigned) [Example 18A]	> 100	> 1000	–	–
Cn1nc2cc1CSc1cc(c3ccccc3c1)OCCCc1c(C(=O)O)n(C)c3c(c(Cl)ccc13)-c1c(nn3c1CCC3)CSC2 (single isomer, unassigned) [Example 3A, (Z)-1^6-Chloro-1^1,6^1-dimethyl-2^5,2^6-dihydro-1^1H,2^4H,6^1H-10-oxa-4,8-dithia-1(7,3)-indola-2(3,2)-pyrrolo[1,2-b]pyrazola-6(3,5)-pyrazola-9(3,1)-naphthalenacyclotridecaphane-1^2-carboxylic acid]	< 10	–	< 100	–
Cc1[nH]nc2c1-c1c(Cl)ccc3c(c(C(=O)O)n(C)c13)CCCOc1cc(cc3ccccc13)SCc1cc(nn1C)CSC2 (single isomer, unassigned) [Example 6B, (Z)-1^6-Chloro-1^1,2^5,6^1-trimethyl-1^1H,2^1H,6^1H-10-oxa-4,8-dithia-1(7,3)-indola-2(4,3),6(3,5)-dipyrazola-9(3,1)-naphthalenacyclotridecaphane-1^2-carboxylic acid]	10 to 100	–	> 1000	–
Cc1c2c(nn1C)CSCc1cc(n(C(C)C)n1)CSc1cc(c3ccccc3c1)OCCCc1c(C(=O)O)n(C)c3c-2c(Cl)ccc13 (single isomer, unassigned) [Example 10A, (Z)-1^6-Chloro-6^1-isopropyl-1^1,2^1,2^5-trimethyl-1^1H,2^1H,6^1H-10-oxa-4,8-dithia-1(7,3)-indola-2(4,3),6(3,5)-dipyrazola-9(3,1)-naphthalenacyclotridecaphane-1^2-carboxylic acid]	< 10	< 100	–	–
Cn1nc2cc1CSc1cc(c3ccccc3c1)OCCCc1c(C(=O)O)n(C)c3c(c(Cl)ccc13)-c1c(nn(C)c1C#N)CSC2 (single isomer, unassigned) [Example 1B, (Z)-1^6-Chloro-2^5-cyano-1^1,2^1,6^1-trimethyl-1^1H,2^1H,6^1H-10-oxa-4,8-dithia-1(7,3)-indola-2(4,3),6(3,5)-dipyrazola-9(3,1)-naphthalenacyclotridecaphane-1^2-carboxylic acid]	> 100	–	> 1000	–
Cn1nc2cc1CSc1cc(c3ccccc3c1)OCCCc1c(C(=O)O)n(C)c3c(c(Cl)ccc13)-c1c(nn3c1COCC3)CSC2 (single isomer, unassigned) [Example 4A, (Z)-1^6-Chloro-1^1,6^1-dimethyl-2^6,2^7-dihydro-1^1H,2^4H,6^1H-10-oxa-4,8-dithia-2(3,2)-pyrazolo[5,1-c][1,4]oxazina-1(7,3)-indola-6(3,5)-pyrazola-9(3,1)-naphthalenacyclotridecaphane-1^2-carboxylic acid]	< 10	–	100 to 1000	–
COC(=O)c1c2c3ccc(Cl)c(c3n1C)-c1c(nn3c1CCC3)CN(C(=O)OC(C)(C)C)Cc1cc(n(C)n1)CCc1cc(c3ccccc3c1)OCCC2	–	–	–	40
Cn1nc2cc1CSc1cc(c3ccccc3c1)OCCCc1c(C(=O)O)n(C)c3c(c(Cl)ccc13)-c1c(nn(C)c1C#N)CSC2 (single isomer, unassigned) [Example 1A, (Z)-1^6-Chloro-2^5-cyano-1^1,2^1,6^1-trimethyl-1^1H,2^1H,6^1H-10-oxa-4,8-dithia-1(7,3)-indola-2(4,3),6(3,5)-dipyrazola-9(3,1)-naphthalenacyclotridecaphane-1^2-carboxylic acid]	< 10	–	100 to 1000	–
Cc1nn(C)c2c1-c1c(F)ccc3c(c(C(=O)O)n(C)c13)CCCOc1cc(cc3ccccc13)SCc1cc(nn1CC(C)C)CSC2 (single isomer, unassigned) [Example 17A, (Z)-1^6-Fluoro-6^1-isobutyl-1^1,2^1,2^3-trimethyl-1^1H,2^1H,6^1H-10-oxa-4,8-dithia-1(7,3)-indola-2(4,5),6(3,5)-dipyrazola-9(3,1)-naphthalenacyclotridecaphane-1^2-carboxylic acid]	> 100	–	> 1000	–
